One test concerns the target T1, D1 dopamine receptors (Rattus norvegicus, UniProt P18901).
T1 construct: Striatal samples from the brains of male Charles River CD rats; from tissue; host or cells: striatum of male Charles River CD rats (washed membrane pellet)
The test is described as follows: D1 dopamine receptor binding: inhibition of tritiated SCH 23390 binding, rat striatal samples. On the set-up: species or system rat (male Charles River CD rats). The following applies: rat striatum, tritiated SCH 23390, pH 7.4, 37° C., 30 minutes. A digest of the protocol: (§1)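 Rat striatal membranes in Tris-HCl with NaCl, KCl, CaCl2, MgCl2. Filtration, scintillation counting; Ki from displacement IC50 via ligand KD, some D2 Ki estimated from single concentrations.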

The target of another test is T2, D2 dopamine receptors (Rattus norvegicus, UniProt P61169).
T2 construct: Striatal samples from the brains of male Charles River CD rats; from tissue; host or cells: striatum of male Charles River CD rats (washed membrane pellet)
T2 sequence (P61169 whole entry): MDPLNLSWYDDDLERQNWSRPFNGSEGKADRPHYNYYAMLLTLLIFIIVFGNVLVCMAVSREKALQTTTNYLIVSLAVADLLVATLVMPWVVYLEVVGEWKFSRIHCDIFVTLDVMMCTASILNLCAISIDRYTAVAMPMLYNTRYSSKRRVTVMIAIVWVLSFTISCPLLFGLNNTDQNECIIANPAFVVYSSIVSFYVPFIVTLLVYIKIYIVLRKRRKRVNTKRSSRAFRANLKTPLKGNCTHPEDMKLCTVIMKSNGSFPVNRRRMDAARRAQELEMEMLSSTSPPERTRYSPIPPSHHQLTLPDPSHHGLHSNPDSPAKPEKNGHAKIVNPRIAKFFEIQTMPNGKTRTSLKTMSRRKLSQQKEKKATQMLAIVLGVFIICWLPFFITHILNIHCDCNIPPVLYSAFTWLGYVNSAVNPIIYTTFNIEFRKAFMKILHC
Briefly: D2 dopamine receptor binding: inhibition of tritiated (S)-sulpiride binding, rat striatal samples. On the set-up: species or system rat (male Charles River CD rats). The following applies: for Ki: rat striatum, tritiated (S)-sulpiride; for Ki for D2 / Ki for D1: ratio to two significant figures. A digest of the protocol:
as §1

The mark [1] stands for this setting: pH 7.7, 4° C., 40 minutes, > = from highest concentration which displaced ≤50% of the ligand, read-out: Ki for D2 binding.
Setting [2] is: estimated from single concentration data by Langmuir adsorption isotherm equation, read-out: Ki for D2 binding (marked E).

Like-named read-outs stand apart in the source and are kept apart here.

T1 sequence (P18901 whole entry): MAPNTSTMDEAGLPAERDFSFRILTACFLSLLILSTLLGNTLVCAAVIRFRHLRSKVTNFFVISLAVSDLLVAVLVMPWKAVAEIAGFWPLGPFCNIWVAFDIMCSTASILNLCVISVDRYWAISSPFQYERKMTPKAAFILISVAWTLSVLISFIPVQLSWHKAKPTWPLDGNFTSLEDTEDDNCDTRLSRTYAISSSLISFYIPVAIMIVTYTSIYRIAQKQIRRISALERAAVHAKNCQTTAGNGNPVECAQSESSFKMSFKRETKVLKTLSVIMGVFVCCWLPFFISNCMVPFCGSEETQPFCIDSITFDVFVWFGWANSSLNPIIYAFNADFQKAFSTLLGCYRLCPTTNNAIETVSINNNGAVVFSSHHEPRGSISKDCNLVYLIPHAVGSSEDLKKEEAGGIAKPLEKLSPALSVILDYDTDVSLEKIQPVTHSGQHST

For `CN1CCc2cc(O)c(O)cc2C1C1(c2ccc3ccccc3c2)CCC1` (stereo not shown) [Example 42, 6,7-dihydroxy-2-methyl-1-[1-(2-naphthyl)cyclobutyl]-1,2,3,4-tetrahydroisoquinoline], the results for the Ki at D1 dopamine receptors and at D2 dopamine receptors (setting [1]) were 170 nM and 2500 nM, respectively. The “Ki for D2 / Ki for D1” value at D2 dopamine receptors stood at 15.

Consider `COc1cc2c(cc1O)C(C1(c3cccc4ccccc34)CC1)N(C)CC2` (stereo not shown) [Example 43, 7-hydroxy-6-methoxy-2-methyl-1-[1-(1-naphthyl)cyclopropyl]-1,2,3,4-tetrahydroisoquinoline], for which the Ki on D1 dopamine receptors was 1.4 nM; at D2 dopamine receptors (setting [1]) it was 860 nM. In addition, the “Ki for D2 / Ki for D1” value on D2 dopamine receptors is recorded as 610.

For `CN1CCc2c(Cl)ccc(O)c2C1C1(c2ccccc2)CCC1` (stereo not shown) [Example 44, 5-chloro-8-hydroxy-2-methyl-1-(1-phenylcyclobutyl)-1,2,3,4-tetrahydroisoquinoline], the Ki was 130 nM on D1 dopamine receptors and 4800 nM at D2 dopamine receptors (setting [1]). The “Ki for D2 / Ki for D1” value at D2 dopamine receptors came to 37.

Turning to `CN1CCc2cc(O)c(O)cc2C1C1(c2ccccc2)CCC1` (stereo not shown) [Example 45, 6,7-dihydroxy-2-methyl-1-(1-phenylcyclobutyl)-1,2,3,4-tetrahydroisoquinoline], the values for the Ki on D1 dopamine receptors and on D2 dopamine receptors (setting [1]) were 24 nM and above 500 nM, respectively. The “Ki for D2 / Ki for D1” value at D2 dopamine receptors was above 21.

`CN1CCc2cc(O)c(O)cc2C1C1(c2ccc(Cl)cc2Cl)CCC1` (stereo not shown) [Example 46]: the Ki is 6.6 nM at D1 dopamine receptors and 1200 nM at D2 dopamine receptors (setting [1]). Besides, on D2 dopamine receptors, the “Ki for D2 / Ki for D1” value is on record as 180.

Take `CN1CCc2ccc(O)cc2C1C1(c2ccccc2Cl)CCC1` (stereo not shown) [Example 47, 1-[1-(2-chlorophenyl)cyclobutyl]-7-hydroxy-2-methyl-1,2,3,4-tetrahydroisoquinoline]: the Ki at D1 dopamine receptors was 9.1 nM; at D2 dopamine receptors (setting [1]) it was 19000 nM. At D2 dopamine receptors, the “Ki for D2 / Ki for D1” value is 2100.

As for `COc1cc2c(cc1O)C(C1(c3ccccc3)CCCC1)N(C)CC2` (stereo not shown) [Example 48], the results for the Ki on D1 dopamine receptors and on D2 dopamine receptors (setting [2]) were 94 nM and 3000 nM, respectively.

In the case of `COc1cc2c(cc1O)C(C1(c3ccc(Cl)cc3)CCC1)N(C)CC2` (stereo not shown) [Example 49, 1-[1-(4-chlorophenyl)cyclobutyl]-7-hydroxy-6-methoxy-2-methyl-1,2,3,4-tetrahydroisoquinoline], the Ki at D1 dopamine receptors is 8.4 nM; on D2 dopamine receptors (setting [1]), above 500 nM. In addition, the “Ki for D2 / Ki for D1” value on D2 dopamine receptors is reported as above 60.

Turning to `CN1CCc2cc(O)c(O)cc2C1C1(c2ccc(Cl)cc2)CCC1` (stereo not shown) [Example 50, 1-[1-(4-chlorophenyl)cyclobutyl]-6,7-dihydroxy-2-methyl-1,2,3,4-tetrahydroisoquinoline], the Ki at D1 dopamine receptors amounted to 25 nM; on D2 dopamine receptors (setting [1]) it was 1500 nM. Further, the “Ki for D2 / Ki for D1” value at D2 dopamine receptors was 60.

With `CN1CCc2ccc(O)cc2C1C1(c2ccc(Cl)cc2)CCC1` (stereo not shown) [Example 51, 1-[1-(4-chlorophenyl)cyclobutyl]-7-hydroxy-2-methyl-1,2,3,4-tetrahydroisoquinoline], the Ki is 13 nM on D1 dopamine receptors and above 500 nM at D2 dopamine receptors (setting [1]). In addition, at D2 dopamine receptors, the “Ki for D2 / Ki for D1” value is listed as above 38.

Take `CN1CCc2cc(Cl)c(O)cc2C1C1(c2ccccc2)CCC1` (stereo not shown) [Example 52, 6-chloro-7-hydroxy-2-methyl-1-(1-phenylcyclobutyl)-1,2,3,4-tetrahydroisoquinoline]: the Ki turned out to be 17 nM on D1 dopamine receptors and 5400 nM on D2 dopamine receptors (setting [1]). Further, the “Ki for D2 / Ki for D1” value at D2 dopamine receptors came to 320.

For `CN1CCc2cc(Cl)c(O)cc2C1C1(c2ccc(Cl)cc2)CCC1` (stereo not shown) [Example 53, 6-chloro-1-[1-(4-chlorophenyl)cyclobutyl]-7-hydroxy-2-methyl-1,2,3,4-tetrahydroisoquinoline], the figures for the Ki at D1 dopamine receptors and at D2 dopamine receptors (setting [1]) were 24 nM and 7600 nM, respectively. Besides, the “Ki for D2 / Ki for D1” value on D2 dopamine receptors was 320.

As to `COc1ccc(C2(C3c4cc(O)c(O)cc4CCN3C)CCC2)cc1` (stereo not shown) [Example 54], the Ki on D1 dopamine receptors amounted to 32 nM; on D2 dopamine receptors (setting [1]) it was 3000 nM. Also, on D2 dopamine receptors, the “Ki for D2 / Ki for D1” value was determined as 94.

`COc1cc2c(cc1O)C(C1(c3ccccc3)CCC1)N(C)CC2` (stereo not shown) [Example 55, 7-hydroxy-6-methoxy-2-methyl-1-(1-phenylcyclobutyl)-1,2,3,4-tetrahydroisoquinoline]: the Ki on D1 dopamine receptors was 41 nM; at D2 dopamine receptors (setting [1]), above 500 nM. Moreover, on D2 dopamine receptors, the “Ki for D2 / Ki for D1” value is given as above 12.

On to `COc1cc2c(cc1O)C(C1(c3cc(OC)c(OC)cc3Br)CCC1)N(C)CC2` (stereo not shown) [Example 56, 1-[1-(2-bromo-4,5-dimethoxyphenyl)cyclobutyl]-7-hydroxy-6-methoxy-2-methyl-1,2,3,4-tetrahydroisoquinoline], for which the figures for the Ki on D1 dopamine receptors and on D2 dopamine receptors (setting [1]) were 2.3 nM and 52000 nM, respectively. Moreover, the “Ki for D2 / Ki for D1” value at D2 dopamine receptors came out at 23000.

Consider `CN1CCc2cc([N+](=O)[O-])c(O)cc2C1C1(c2ccccc2)CCC1` (stereo not shown) [Example 57, 7-hydroxy-2-methyl-6-nitro-1-(1-phenylcyclobutyl)-1,2,3,4-tetrahydroisoquinoline], for which the values for the Ki at D1 dopamine receptors and on D2 dopamine receptors (setting [1]) were 770 nM and above 5000 nM, respectively. For the same compound, the “Ki for D2 / Ki for D1” value at D2 dopamine receptors is recorded as above 6.5.

`CN1CCc2cc(Cl)c(O)c(Cl)c2C1C1(c2ccccc2)CCC1` (stereo not shown) [Example 58, 6,8-dichloro-7-hydroxy-2-methyl-1-(1-phenylcyclobutyl)-1,2,3,4-tetrahydroisoquinoline]: the values for the inhibition constant (Ki) at D1 dopamine receptors and at D2 dopamine receptors (setting [1]) were 740 nM and 360000 nM, respectively. In addition, the “Ki for D2 / Ki for D1” value on D2 dopamine receptors came out at 490.

For the compound `CN1CCc2cc(F)c(O)cc2C1C1(c2ccccc2Cl)CC1` (stereo not shown) [Example 61, 1-[1-(2-chlorophenyl)cyclopropyl]-6-fluoro-7-hydroxy-2-methyl-1,2,3,4-tetrahydroisoquinoline], the Ki amounted to 0.18 nM on D1 dopamine receptors and 450 nM at D2 dopamine receptors (setting [1]). Further, the “Ki for D2 / Ki for D1” value on D2 dopamine receptors is on record as 2500.

With `CN1CCc2cc(F)c(O)cc2C1C1(c2ccccc2Cl)CC1` (stereo not shown) [Example 63, 1-[1-(2-chlorophenyl)cyclopropyl]-6-fluoro-7-hydroxy-2-methyl-1,2,3,4-tetrahydroisoquinoline], the results for the Ki at D1 dopamine receptors and at D2 dopamine receptors (setting [1]) were 2 nM and 1600 nM, respectively. The “Ki for D2 / Ki for D1” value on D2 dopamine receptors was determined as 800.

For the compound `C=CCN1CCc2cc(Cl)c(O)cc2C1C1(c2ccccc2)CCC1` (stereo not shown) [Example 65, 2-allyl-6-chloro-7-hydroxy-1-(1-phenylcyclobutyl)-1,2,3,4-tetrahydroisoquinoline], the Ki at D1 dopamine receptors worked out at 22 nM; on D2 dopamine receptors (setting [1]) it was 51000 nM. Also, on D2 dopamine receptors, the “Ki for D2 / Ki for D1” value was 2300.

Turning to `CCN1CCc2cc(O)c(O)cc2C1C1(c2ccc(Cl)cc2)CCC1` (stereo not shown) [Example 66, 1-[1-(4-chlorophenyl)cyclobutyl]-2-ethyl-6,7-dihydroxy-1,2,3,4-tetrahydroisoquinoline], the Ki was 120 nM at D1 dopamine receptors and above 500 nM on D2 dopamine receptors (setting [1]). For the same compound, the “Ki for D2 / Ki for D1” value at D2 dopamine receptors was above 4.2.

For `C=CCN1CCc2cc(O)c(O)cc2C1C1(c2ccc(Cl)cc2)CCC1` (stereo not shown) [Example 67, 2-allyl-1-[1-(4-chlorophenyl)cyclobutyl]-6,7-dihydroxy-1,2,3,4-tetrahydroisoquinoline], the results for the Ki on D1 dopamine receptors and on D2 dopamine receptors (setting [2]) were 53 nM and 7000 nM, respectively.

In the case of `COc1cc2c(cc1O)C(C1(c3ccccc3Br)CCC1)N(C)CC2` (stereo not shown) [Example 68, 1-[1-(2-bromophenyl)cyclobutyl]-7-hydroxy-6-methoxy-2-methyl-1,2,3,4-tetrahydroisoquinoline], the results for the Ki on D1 dopamine receptors and on D2 dopamine receptors (setting [1]) were 2 nM and 1900 nM, respectively. The “Ki for D2 / Ki for D1” value on D2 dopamine receptors is 950.

Take `COc1cc2c(cc1O)C(C1(c3ccccc3Cl)CCC1)N(C)CC2` (stereo not shown) [Example 69, 1-[1-(2-chlorophenyl)cyclobutyl]-7-hydroxy-6-methoxy-2-methyl-1,2,3,4-tetrahydroisoquinoline]: the Ki on D1 dopamine receptors was 2.1 nM; on D2 dopamine receptors (setting [1]), 5800 nM. The “Ki for D2 / Ki for D1” value on D2 dopamine receptors worked out at 2800.

`COc1cc2c(cc1O)C(C1(c3ccccc3Cl)CC(C)(C)C1)N(C)CC2` (stereo not shown) [Example 70, 7-hydroxy-6-methoxy-2-methyl-1-[1-(2-chlorophenyl)-3,3-dimethylcyclobutyl]-1,2,3,4-tetrahydroisoquinoline]: the Ki was 21 nM on D1 dopamine receptors and 35000 nM on D2 dopamine receptors (setting [1]). The “Ki for D2 / Ki for D1” value at D2 dopamine receptors came out at 1700.

Consider `CSc1ccccc1C1(C2c3cc(O)c(O)cc3CCN2C)CCC1` (stereo not shown) [Example 71, 6,7-dihydroxy-2-methyl-1-[1-(2-methylthiophenyl)cyclobutyl]-1,2,3,4-tetrahydroisoquinoline], for which the results for the Ki on D1 dopamine receptors and on D2 dopamine receptors (setting [1]) were 1.5 nM and 1800 nM, respectively. The “Ki for D2 / Ki for D1” value at D2 dopamine receptors is 1200.

Take `COc1cc2c(cc1O)C(C1(c3ccc(OC(F)(F)F)cc3)CCC1)N(C)CC2` (stereo not shown) [Example 72, 7-hydroxy-6-methoxy-2-methyl-1-[1-(4-trifluoromethoxyphenyl)cyclobutyl]-1,2,3,4-tetrahydroisoquinoline]: the Ki at D1 dopamine receptors stood at 47 nM; on D2 dopamine receptors (setting [1]), 9500 nM. Further, the “Ki for D2 / Ki for D1” value on D2 dopamine receptors is 200.

As to `COc1cc2c(cc1O)C(C1(c3ccccc3OC)CC1)N(C)CC2` (stereo not shown) [Example 73, 7-hydroxy-6-methoxy-1-[1-(2-methoxyphenyl)cyclopropyl]-2-methyl-1,2,3,4-tetrahydroisoquinoline], the figures for the Ki on D1 dopamine receptors and at D2 dopamine receptors (setting [1]) were 0.9 nM and 5000 nM, respectively. Further, the “Ki for D2 / Ki for D1” value at D2 dopamine receptors is on record as 5500.

For the compound `COc1cc2c(cc1O)C(C1(c3ccccc3Cl)CC1)N(C)CC2` (stereo not shown) [Example 74, 1-[1-(2-chlorophenyl)cyclopropyl]-7-hydroxy-6-methoxy-2-methyl-1,2,3,4-tetrahydroisoquinoline], the Ki stood at 1.5 nM at D1 dopamine receptors and 1100 nM at D2 dopamine receptors (setting [1]). In addition, the “Ki for D2 / Ki for D1” value at D2 dopamine receptors was 730.

One may read the Ki as the dissociation constant of the complex between target and ligand, obtained from inhibition or displacement.

(Values after patent US5519034A, “Tetraisoquinoline compounds which have useful pharmaceutical utility” (The Boots Company PLC, priority 1991, dated 1996).)
